Target: T1, recombinant human GR (Homo sapiens, UniProt P04150)
T1 construct: purchased Panvera/Invitrogen P2812 (kit P2893)
T1 sequence (P04150 1-777): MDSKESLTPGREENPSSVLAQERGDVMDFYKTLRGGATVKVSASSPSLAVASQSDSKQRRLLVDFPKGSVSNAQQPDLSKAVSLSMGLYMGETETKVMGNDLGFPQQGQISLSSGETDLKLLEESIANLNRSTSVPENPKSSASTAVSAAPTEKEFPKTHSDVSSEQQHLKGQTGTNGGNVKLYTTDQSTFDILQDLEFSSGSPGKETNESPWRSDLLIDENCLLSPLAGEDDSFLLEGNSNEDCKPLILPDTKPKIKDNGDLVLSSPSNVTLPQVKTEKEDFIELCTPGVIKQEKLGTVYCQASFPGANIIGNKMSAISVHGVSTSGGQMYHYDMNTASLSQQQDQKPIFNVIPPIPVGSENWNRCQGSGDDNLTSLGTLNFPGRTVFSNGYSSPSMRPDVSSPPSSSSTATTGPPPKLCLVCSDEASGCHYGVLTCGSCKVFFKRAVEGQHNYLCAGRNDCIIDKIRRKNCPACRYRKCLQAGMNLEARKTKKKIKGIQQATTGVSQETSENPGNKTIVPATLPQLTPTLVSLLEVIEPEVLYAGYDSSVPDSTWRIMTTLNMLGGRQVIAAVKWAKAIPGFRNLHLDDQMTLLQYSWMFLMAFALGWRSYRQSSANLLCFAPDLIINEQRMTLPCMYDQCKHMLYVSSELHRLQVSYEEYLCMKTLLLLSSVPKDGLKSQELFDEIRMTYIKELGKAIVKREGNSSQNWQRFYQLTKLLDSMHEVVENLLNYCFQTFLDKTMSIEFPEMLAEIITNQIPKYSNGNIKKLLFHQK
Assay: Human Glucocorticoid Receptor (GR) Assay (fluorescence polarization, Panvera/Invitrogen kit)
Assay type: binding
Settings: fluorescence polarization; GS Red tracer; 2 hours at room temperature; 100% control 10 μM Dexamethasone; read-out: Inhibition of GR binding, IC50
How it was run: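 Fluorescence polarization competition with recombinant GR and GS Red fluorescent ligand plus stabilizing peptide and DTT in potassium phosphate/sodium molybdate/EDTA buffer with DMSO. Incubated 2 hours at room temperature in the dark; 0% control DMSO, 100% control 10 μM dexamethasone.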

## COCSC(=O)[C@@]1(OC(=O)c2cocn2)CC[C@H]2[C@@H]3CCC4=Cc5c(cnn5-c5ccc(F)nc5)C[C@]4(C)[C@H]3[C@@H](O)C[C@@]21C [Example 163, (1R,3aS,3bS,10aR,10bS,11S,12aS)-7-(6-Fluoropyridin-3-yl)-11-hydroxy-1-{[(methoxymethyl)sulfanyl]carbonyl}-10a,12a-dimethyl-1,2,3,3a,3b,4,5,7,10,10a,10b,11,12,12a-tetradecahydrocyclopenta[5,6]naphtho[1,2-f]indazol-1-yl 1,3-oxazole-4-carboxylate]
  IC50: 1.7 nM

## C[C@]12Cc3cnn(-c4ccc(F)nc4)c3C=C1CC[C@@H]1[C@@H]2[C@@H](O)C[C@@]2(C)[C@H]1CC[C@]2(O)C(=O)SCC#N [Example 164, S-(Cyanomethyl)(1R,3aS,3bS,10aR,10bS,11S,12aS)-7-(6-fluoropyridin-3-yl)-1,11-dihydroxy-10a,12a-dimethyl-1,2,3,3a,3b,4,5,7,10,10a,10b,11,12,12a-tetradecahydrocyclopenta[5,6]naphtho[1,2-f]indazole-1-carbothioate]
  IC50: 1.4 nM

## CSC(=O)[C@@]1(O)CC[C@H]2[C@@H]3CCC4=Cc5c(cnn5-c5ccc(F)nc5)C[C@]4(C)[C@H]3[C@@H](O)C[C@@]21C [Example 165, S-Methyl(1R,3aS,3bS,10aR,10bS,11S,12aS)-7-(6-fluoropyridin-3-yl)-1,11-dihydroxy-10a,12a-dimethyl-1,2,3,3a,3b,4,5,7,10,10a,10b,11,12,12a-tetradecahydrocyclopenta[5,6]naphtho[1,2-f]indazole-1-carbothioate]
  IC50: 3.8 nM

## C[C@]12Cc3cnn(-c4ccc(F)nc4)c3C=C1CC[C@@H]1[C@@H]2[C@@H](O)C[C@@]2(C)[C@H]1CC[C@]2(OC(=O)c1ccco1)C(=O)SCC#N [Example 166, (1R,3aS,3bS,10aR,10bS,11S,12aS)-1-{[(Cyanomethyl)sulfanyl]carbonyl}-7-(6-fluoropyridin-3-yl)-11-hydroxy-10a,12a-dimethyl-1,2,3,3a,3b,4,5,7,10,10a,10b,11,12,12a-tetradecahydrocyclopenta[5,6]naphtho[1,2-f]indazol-1-yl furan-2-carboxylate]
  IC50: 5.8 nM

## CSC(=O)[C@@]1(OC(=O)c2ccco2)CC[C@H]2[C@@H]3CCC4=Cc5c(cnn5-c5ccc(F)nc5)C[C@]4(C)[C@H]3[C@@H](O)C[C@@]21C [Example 167, (1R,3aS,3bS,10aR,10bS,11S,12aS)-7-(6-Fluoropyridin-3-yl)-11-hydroxy-10a,12a-dimethyl-1-[(methylsulfanyl)carbonyl]-1,2,3,3a,3b,4,5,7,10,10a,10b,11,12,12a-tetradecahydrocyclopenta[5,6]naphtho[1,2-f]indazol-1-yl furan-2-carboxylate]
  IC50: 5.6 nM

## C[C@]12Cc3cnn(-c4ccc(F)nc4)c3C=C1CC[C@@H]1[C@@H]2[C@@H](O)C[C@@]2(C)[C@H]1CC[C@]2(OC(=O)c1ccco1)C(=O)SCCO [Example 168, (1R,3aS,3bS,10aR,10bS,11S,12aS)-7-(6-Fluoropyridin-3-yl)-11-hydroxy-1-{[(2-hydroxyethyl)sulfanyl]carbonyl}-10a,12a-dimethyl-1,2,3,3a,3b,4,5,7,10,10a,10b,11,12,12a-tetradecahydrocyclopenta[5,6]naphtho[1,2-f]indazol-1-yl furan-2-carboxylate]
  IC50: 5.3 nM

## CCC(=O)O[C@]1(C(=O)SCC#N)CC[C@H]2[C@@H]3CCC4=Cc5c(cnn5-c5ccc(F)c(C(=O)SCC#N)c5)C[C@]4(C)[C@H]3[C@@H](O)C[C@@]21C [Example 174, (1R,3aS,3bS,10aR,10bS,11S,12aS)-1-{[(Cyanomethyl)sulfanyl]carbonyl}-7-(3-{[(cyanomethyl)sulfanyl]carbonyl}-4-fluorophenyl)-11-hydroxy-10a,12a-dimethyl-1,2,3,3a,3b,4,5,7,10,10a,10,12,12a-tetradecahydrocyclopenta[5,6]naphtho[1,2-f]indazol-1-yl propanoate]
  IC50: 34 nM

## CCC(=O)O[C@]1(C(=O)SC)CC[C@H]2[C@@H]3CCC4=Cc5c(cnn5-c5ccc(F)c(C(=O)SC)c5)C[C@]4(C)[C@H]3[C@@H](O)C[C@@]21C [Example 175, (1R,3aS,3bS,10aR,10bS,11S,12aS)-7-{4-Fluoro-3-[(methylsulfanyl)carbonyl]phenyl}-11-hydroxy-10a,12a-dimethyl-1-[(methylsulfanyl)carbonyl]-1,2,3,3a,3b,4,5,7,10,10a,10b,11,12,12a-tetradecahydrocyclopenta[5,6]naphtho[1,2-f]indazol-1-yl propanoate]
  IC50: 18 nM

## Cn1cccc1C(=O)O[C@]1(C(=O)SCC#N)CC[C@H]2[C@@H]3CCC4=Cc5c(cnn5-c5ccc(F)cc5)C[C@]4(C)[C@H]3[C@@H](O)C[C@@]21C [Example 176, (1R,3aS,3bS,10aR,10bS,11S,12aS)-1-{[(Cyanomethyl)thio]carbonyl}-7-(4-fluorophenyl)-11-hydroxy-10a,12a-dimethyl-1,2,3,3a,3b,4,5,7,10,10a,10b,11,12,12a-tetradecahydrocyclopenta[5,6]naphtho[1,2-f]indazol-1-yl 1-methyl-1H-pyrrole-2-carboxylate]
  IC50: 11 nM

## Cn1cccc1C(=O)O[C@]1(C(=O)SCF)CC[C@H]2[C@@H]3CCC4=Cc5c(cnn5-c5ccc(F)cc5)C[C@]4(C)[C@H]3[C@@H](O)C[C@@]21C [Example 177, (1R,3aS,3bS,10aR,10bS,11S,12aS)-1-{[(Fluoromethyl)thio]carbonyl}-7-(4-fluorophenyl)-11-hydroxy-10a,12a-dimethyl-1,2,3,3a,3b,4,5,7,10,10a,10b,11,12,12a-tetradecahydrocyclopenta[5,6]naphtho[1,2-f]indazol-1-yl 1-methyl-1H-pyrrole-2-carboxylate]
  IC50: 7.5 nM

## Cn1cccc1C(=O)O[C@]1(C(=O)SCCO)CC[C@H]2[C@@H]3CCC4=Cc5c(cnn5-c5ccc(F)cc5)C[C@]4(C)[C@H]3[C@@H](O)C[C@@]21C [Example 178, (1R,3aS,3bS,10aR,10bS,11S,12aS)-7-(4-Fluorophenyl)-11-hydroxy-1-{[(2-hydroxyethyl)thio]carbonyl}-10a,12a-dimethyl-1,2,3,3a,3b,4,5,7,10a,10b,11,12,12a-tetradecahydrocyclopenta[5,6]naphtho[1,2]-indazol-1-yl 1-methyl-1H-pyrrole-2-carboxylate]
  IC50: 7.6 nM

## C[C@]12Cc3cnn(-c4ccnnc4)c3C=C1CC[C@@H]1[C@@H]2[C@@H](O)C[C@@]2(C)[C@H]1CC[C@]2(OC(=O)C1CC1)C(=O)OCC#N [Example 184, Cyanomethyl(1R,3aS,3bS,10aR,10bS,11S,12aS)-1-[(cyclopropylcarbonyl)oxy]-11-hydroxy-10a,12a-dimethyl-7-pyridazin-4-yl-1,2,3,3a,3b,4,5,7,10,10a,10b,11,12,12a-tetradecahydrocyclopenta[5,6]naphtho[1,2-f]indazole-1-carboxylate]
  IC50: 1.7 nM

## C[C@]12Cc3cnn(-c4ccc(F)nc4)c3C=C1CC[C@@H]1[C@@H]2[C@@H](O)C[C@@]2(C)[C@H]1CC[C@]2(OC(=O)[C@H]1CCCO1)C(=O)SCC#N [Example 185, (1R,3aS,3bS,10aR,10bS,11S,12aS)-1-{[(Cyanomethyl)sulfanyl]carbonyl}-7-(6-fluoropyridin-3-yl)-11-hydroxy-10a,12a-dimethyl-1,2,3,3a,3b,4,5,7,10,10a,10b,11,12,12a-tetradecahydrocyclopenta[5,6]naphtho[1,2-f]indazol-1-yl (2R)-tetrahydrofuran-2-carboxylate]
  IC50: 2.7 nM

## C[C@]12Cc3cnn(-c4ccc(F)nc4)c3C=C1CC[C@@H]1[C@@H]2[C@@H](O)C[C@@]2(C)[C@H]1CC[C@]2(OC(=O)[C@H]1CCCO1)C(=O)SCCO [Example 186, (1R,3aS,3bS,10aR,10bS,11S,12aS)-7-(6-Fluoropyridin-3-yl)-11-hydroxy-1-{[(2-hydroxyethyl)sulfanyl]carbonyl}-10a,12a-dimethyl-1,2,3,3a,3b,4,5,7,10,10a,10b,11,12,12a-tetradecahydrocyclopenta[5,6]naphtho[1,2-f]indazol-1-yl (2R)-tetrahydrofuran-2-carboxylate]
  IC50: 2.3 nM

## C[C@]12Cc3cnn(-c4ccc(F)nc4)c3C=C1CC[C@@H]1[C@@H]2[C@@H](O)C[C@@]2(C)[C@H]1CC[C@]2(OC(=O)[C@H]1CCCO1)C(=O)SCF [Example 187, (1R,3aS,3bS,10aR,10bS,11S,12aS)-1-{[(Fluoromethyl)sulfanyl]carbonyl}-7-(6-fluoropyridin-3-yl)-11-hydroxy-10a,12a-dimethyl-1,2,3,3a,3b,4,5,10,10a,10b,11,12,12a-tetradecahydrocyclopenta[5,6]naphtho[1,2-f]indazol-1-yl (2R)-tetrahydrofuran-2-carboxylate]
  IC50: 2.3 nM

Reference: patent US8163724B2, “Glucocorticosteroids, processes for their preparation, pharmaceutical compositions containing them and their use in therapy” (AstraZeneca AB, priority 2007, dated 2012)
